Measurements as given in US20080269325A1, “Methods to Relieve Pain” (Imperial Innovations Limited, priority 2004, published 2008).
Each block holds one molecule with its values, some of them ahead of it.

Columns and labels:
[1] = tested on: rats rendered neuropathic by partial sciatic nerve ligation; test: Mechanical allodynia (electronic von Frey), partial sciatic nerve ligation model; type: in vivo, rat
Protocol: (§1) Male Wistar rats, weighing 250-350 g (mean 300 g) were housed at a constant temperature under a 14:10 light/dark cycle, with free access to food and water.
(§2) The animals were randomised into four experimental groups, with six animals in each group:
(§3) Group B. L-29 in a DMSO Vehicle in Three i.p. Doses: 0.1 mgkg^−1, 1 mgkg^−1, 10 mgkg^−1
(§4) In this study, six animals were allocated to each dose group and baseline limb withdrawal thresholds were recorded for each animal at t=0. This was immediately followed by the ip. administration of L-29 solution.
(§5) Limb withdrawal thresholds to all three modalities were recorded at t=0. Each animal then received i.p. injection of the antagonist in a 40% DMSO and saline solution, immediately followed by the administration of L-29 at a dose of 1 mgkg^−1 via the same route. Sensory testing resumed and limb withdrawal thresholds were recorded over the course of the experiment as described.
(§6) Following the original description for partial sciatic nerve ligation by Seltzer et al.^2, surgery was performed in equal number. Under inhalational anaesthesia using isoflurane and nitrous oxide, the left sciatic nerve was exposed at upper-thigh level and the dorsal third—half of the sciatic nerve tightly ligated with a 7-0 silk suture at a site just distal to the point at which the posterior biceps semitendinosus nerve branches off the sciatic nerve. Haemostasis was confirmed and the wound then closed with muscle and skin sutures and a small volume of 0.5% bupivicaine administered subcutaneously. A strict aseptic technique was maintained throughout. The animal was then recovered and returned to its housing environment and a post-operative check conducted the following day. See FIG. 12 for full description and protocol.
Behavioural tests included simple reflex withdrawal to mechanical, thermal and cold stimuli. Before commencing experiments, animals were allowed to acclimatise to the testing environment for at least 15 minutes until exploratory behaviour had ceased. In order to minimise bias, the experiment to be conducted was randomised (according to a predetermined random number table—see table 2) on the day of testing and the drug doses were drawn up and given by a separate investigator to the one scoring the behavioural tests who was blinded to the drugs given. Baseline sensory thresholds were measured pre-operatively on the day of surgery and on post-operative day eight. […] Sensory thresholds were recorded at time (t) 0, 20, 40, 60 and 80 minutes post drug administration. […]
(§7) Statistical significance was determined for neuropathy by the paired t-test and for drug effects by the one-way ANOVA (Dunnett's test) (compared to post-operative values), both taking p<0.05 as statistically significant.

[2] = tested on: rats rendered neuropathic by partial sciatic nerve ligation; test: Cold allodynia (acetone drop), partial sciatic nerve ligation model; type: in vivo, rat; conditions: for positive response to cold stimulus (declined from 100%): between 40-60 minutes post drug
FAAH = molecular target: T1, FAAH (Rattus norvegicus, UniProt P97612); test: Inhibition of FAAH catalysed [3H]-AEA hydrolysis; type: biochemical; conditions: for IC50: FAAH catalysed [3H]-AEA hydrolysis, read-out: pI50 (converted)
T1 sequence (P97612 1-579): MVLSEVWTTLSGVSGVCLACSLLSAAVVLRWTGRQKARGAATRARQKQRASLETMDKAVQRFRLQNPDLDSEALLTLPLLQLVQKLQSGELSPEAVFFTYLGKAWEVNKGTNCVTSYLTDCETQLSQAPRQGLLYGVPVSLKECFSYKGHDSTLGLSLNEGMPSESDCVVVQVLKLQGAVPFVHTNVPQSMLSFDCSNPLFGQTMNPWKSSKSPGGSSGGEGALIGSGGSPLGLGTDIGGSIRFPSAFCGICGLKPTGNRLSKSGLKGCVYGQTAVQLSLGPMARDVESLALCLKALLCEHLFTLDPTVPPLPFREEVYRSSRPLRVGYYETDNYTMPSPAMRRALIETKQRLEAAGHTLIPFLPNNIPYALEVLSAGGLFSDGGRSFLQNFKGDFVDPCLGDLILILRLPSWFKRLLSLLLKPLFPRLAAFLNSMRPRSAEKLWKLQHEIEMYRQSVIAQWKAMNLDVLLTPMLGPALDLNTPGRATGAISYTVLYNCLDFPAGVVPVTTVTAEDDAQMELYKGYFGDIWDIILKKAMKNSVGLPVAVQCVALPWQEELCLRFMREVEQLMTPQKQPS
Protocol: (§8) The FAAH inhibitory compound that we are investigating is an analogue of PEA called palmitoylallylamide (L-29). It was developed by Dr Didier Lambert and team at the Unité de Chimie pharmaceutique et de Radiopharmacie, Universite catholique de Louvain, Brussels, Belgium. The capacity of L-29 to inhibit FAAH was calculated by measuring the ability of the compound to inhibit FAAH catalysed [^3H]-AEA hydrolysis (maximum inhibition and pI50 calculated). […] Binding to CB1 and CB2 receptors was also calculated by measuring the displacement of radioactive [^3H]-CP55,940 from a cell line transfected with CB1 receptors and radioactive [^3H]-WIN55,212-2 from a cell line transfected with CB2 receptors.

CB2 receptors = molecular target: T2, CB2 receptors (Homo sapiens, UniProt P34972); test: Displacement of [3H]-WIN55,212-2 from a cell line transfected with CB2 receptors; type: binding; conditions: concentration of 10 μM
T2 construct: expressed in transfected cells
T2 sequence (P34972 whole entry): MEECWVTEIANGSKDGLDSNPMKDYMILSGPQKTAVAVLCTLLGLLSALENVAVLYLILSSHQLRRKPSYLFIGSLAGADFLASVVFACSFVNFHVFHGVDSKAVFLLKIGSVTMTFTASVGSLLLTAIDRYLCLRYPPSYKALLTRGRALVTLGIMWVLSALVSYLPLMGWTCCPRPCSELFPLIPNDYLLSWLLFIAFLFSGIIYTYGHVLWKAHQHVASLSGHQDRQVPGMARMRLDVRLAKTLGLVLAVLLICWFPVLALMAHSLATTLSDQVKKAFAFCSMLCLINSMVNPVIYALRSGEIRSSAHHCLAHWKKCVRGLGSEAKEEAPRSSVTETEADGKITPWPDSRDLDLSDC
Protocol: as §8

[3] = tested on: formalin-evoked pain in the rat; test: Formalin test (CPS-WST(0,1,2) pain score); type: in vivo
Protocol: All experiments conformed with British Home Office regulations. Male Wistar rats weighing 230-290 g were obtained from B&K. Animals were housed in group cages and maintained on a 12-hour light-dark cycle with ad libitum access to food and water. Each animal was used in one experiment only.
L-29 was a gift from D Lambert (see FIG. 1 for chemical structure). SR1 and SR2 were a gift from Sanofi and capsazepine was purchased from Tocris. All drugs were dissolved in 40% dimethyl sulphoxide (DMSO) and saline.
Rats were randomised into seven groups. Investigator JB carried out the dosing of the animals to conform with Home Office regulations, while investigator HJ carried out all other duties including scoring the behavioural test, she was blinded to the drugs given. All animals were acclimatised to the testing environment for at least 30 min prior to the experiment beginning. Each animal received a first intraperitoneal (i.p.) injection of either vehicle or antagonist and five minutes later a second i.p. injection of either vehicle or L-29. […] 10 min later all the animals received a formalin injection.
50 μl of 2.5% formalin was injected subcutaneously into the dorsum of the right hind paw via a 27G needle. The paw was then marked with permanent ink. The animal was immediately replaced in the observation chamber, a clear plexiglass box measuring 23 cm×18 cm×14 cm, with a mirror positioned underneath at 45° to allow an unobstructed view of the paw. Observations began as the rats were placed in the box and continued for 60 min. Their behaviour was rated according to the Composite Pain Score, Weighted Scores Technique (CPS-WST (0,1,2)), a validated pain behaviour scoring system for the rat formalin test (Watson et al 1997). The amount of time spent in each of 2 behavioural categories was measured for each consecutive 5 min period within the hour scored. Category 1, the injected paw is elevated and not in contact with any surface and category 2, the injected paw is licked, bitten or shaken. A weighted score was then obtained for each 5 min period and for phase 1 (0-15 min) and phase 2 (15-60 min), by using the formula below:
CPS-WST=(1×time in category 1)+(2×time spent in category 2)
Data was analysed using the one-way ANOVA test followed by Dunnett's test using the SigmaStat 2.3 computer package.

CB1 receptors = molecular target: T3, CB1 receptors (Homo sapiens, UniProt P21554); test: Displacement of [3H]-CP55,940 from a cell line transfected with CB1 receptors; type: binding; conditions: concentration of 10 μM
T3 construct: expressed in transfected cells
T3 sequence (P21554 whole entry): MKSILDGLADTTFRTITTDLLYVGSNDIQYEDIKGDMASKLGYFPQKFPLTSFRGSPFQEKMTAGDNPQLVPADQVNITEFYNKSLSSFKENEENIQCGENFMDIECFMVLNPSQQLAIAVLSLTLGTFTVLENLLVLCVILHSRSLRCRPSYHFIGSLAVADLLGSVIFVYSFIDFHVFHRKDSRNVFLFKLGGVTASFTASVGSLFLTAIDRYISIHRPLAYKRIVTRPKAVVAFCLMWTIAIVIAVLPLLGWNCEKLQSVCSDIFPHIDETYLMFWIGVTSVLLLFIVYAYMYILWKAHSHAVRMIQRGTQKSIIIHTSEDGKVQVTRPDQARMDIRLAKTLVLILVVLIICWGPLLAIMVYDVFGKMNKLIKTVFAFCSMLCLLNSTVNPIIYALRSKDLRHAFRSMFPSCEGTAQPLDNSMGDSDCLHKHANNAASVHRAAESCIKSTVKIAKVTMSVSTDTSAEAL
Protocol: as §8

[4] = tested on: rats rendered neuropathic by partial sciatic nerve ligation; test: Thermal hyperalgesia (Hargreaves' device), partial sciatic nerve ligation model; type: in vivo, rat
Protocol: as §1, §2, §3, §4, §5, §6
Behavioural tests included simple reflex withdrawal to mechanical, thermal and cold stimuli. […] Baseline sensory thresholds were measured pre-operatively on the day of surgery and on post-operative day eight. […] Sensory thresholds were recorded at time (t) 0, 20, 40, 60 and 80 minutes post drug administration.
Thermal hyperalgesia is assessed using a noxious infrared heat stimulus applied to the plantar surface of both hind paws as described by Hargreaves et al.^4 Paw withdrawal thresholds to a focused beam of radiant heat at a constant temperature of 46° C. and infrared intensity (of twenty for rats and thirty for mice) is measured. […] Sampling is repeated five times to each paw with three minutes between testing and a mean withdrawal threshold is calculated.
as §7

WIN2 induced catalepsy = conditions: 1 mg/kg i.p.; cited from earlier work
[5] = antagonist 1 mgkg^−1 i.p. + L-29 1 mgkg^−1 i.p.

maximum inhibition of FAAH catalysed [3H]-AEA hydrolysis (FAAH): 67%
IC50 (FAAH): 3.39 µM
displacement of [3H]-WIN55,212-2 in the CB2 assay (CB2 receptors): 7.8%
displacement of [3H]-CP55,940 in the CB1 assay (CB1 receptors): 13.3%
SMILES: C=CCNC(=O)CCCCCCCCCCCCCCC [L-29, N-(2-propenyl)hexadecanamide]
reversal of mechanical allodynia ([1]; 0.1 mgkg^−1 i.p.): only at 80 minutes post i.p drug administration
reversal of mechanical allodynia (mechanical sensory thresholds) ([1]; 1 mgkg^−1 i.p., at 20 minutes and 60 minutes post drug): significant increase in mechanical sensory thresholds
reversal of mechanical allodynia ([1]; 10 mgkg^−1 i.p.): No effect on mechanical allodynia
decline in positive response to cold stimulus ([2]; 0.1 mgkg^−1 i.p., between 20-40 minutes): decline by almost half
positive response to cold stimulus (declined from 100%) ([2]; 1 mgkg^−1 i.p.): 50%
positive response to cold stimulus (declined from 100%) ([2]; 10 mgkg^−1 i.p.): 50%
reversal of cold allodynia ([2]; all doses (0.1, 1, 10 mgkg^−1 i.p.)): did not yield a statistically significant reversal of cold allodynia
pain behaviour v control ([3]; 0.1 mg/kg i.p.): not significantly different from control
pain behaviour v control (P<0.05) ([3]; 1 mg/kg i.p.): significantly attenuated pain behaviour
pain behaviour v control (P<0.05) ([3]; 10 mg/kg i.p.): significantly attenuated pain behaviour
pain behaviour in both phases of the formalin test ([3]; 0.1, 1 and 10 mg/kg i.p., 10 min before 2.5% formalin s.c.): dose-dependently inhibited
attenuation of thermal hyperalgesia ([4]; 0.1 mgkg^−1 i.p.): only at 40 minutes
attenuation of thermal hyperalgesia ([4]; 1 mgkg^−1 i.p.): attenuated later between 40 and 60 minutes post drug injection
attenuation of thermal hyperalgesia ([4]; 10 mgkg^−1 i.p., between 20 and 60 minutes post drug): Attenuation of thermal hyperalgesia was greatest

maximum inhibition of FAAH catalysed [3H]-AEA hydrolysis (FAAH): 78%
IC50 (FAAH): 5.01 µM
displacement of [3H]-WIN55,212-2 in the CB2 assay (CB2 receptors): 13.9%
displacement of [3H]-CP55,940 in the CB1 assay (CB1 receptors): 23.8%
SMILES: CCCCCCCCCCCCCCCC(=O)NCCO [PEA, Palmitoylethanolamide, reference compound]

SMILES: Cc1c(C(=O)NN2CCCCC2)nn(-c2ccc(Cl)cc2Cl)c1-c1ccc(Cl)cc1 [SR1, reference compound]
effect of co-administered antagonist on anti-allodynic effect of L-29 (mechanical) [1, 5]: appeared not to prevent the anti-hyperalgesic and anti-allodynic effects
cold allodynia on co-administration of antagonist and L-29 [2, 5]: significant reduction in % positive response to cold stimulus
effect of receptor antagonist on antinociceptive effect of L-29 ([3]; phase 2 (15-60 min), antagonist 1 mg/kg i.p. prior to 1 mg/kg L-29): reverses the antinociceptive effect of L-29
time to significant antagonism of WIN2 induced catalepsy (WIN2 induced catalepsy): ≤ 15 min
effect of co-administered antagonist on anti-hyperalgesic effect of L-29 (thermal) [4, 5]: appeared not to prevent the anti-hyperalgesic and anti-allodynic effects

SMILES: Oc1cc2c(cc1O)CN(C(=S)NCCc1ccc(Cl)cc1)CCC2 [capsazepine, reference compound]
effect of receptor antagonist on antinociceptive effect of L-29 ([3]; either phase, SR2 1 mg/kg or capsazepine 10 mg/kg i.p. prior to 1 mg/kg L-29): do not significantly reverse the antinociceptive effect of L-29
